Laboratory results taken from the pKa sets of Baltruschat and Czodrowski (2020).
Where a SMILES comes first, the peptide text is derived from it.

Settings: acidic group

SMILES	pKa
N#CC(C#N)=NNc1ccccc1Br	6.35
Nc1ncnc2[nH]cnc12	9.86
CCc1cc(O)cc(C)c1Cl	9.6
N#Cc1ccc(-c2nnn[nH]2)cc1	3.53
Cc1cccc(I)c1C(=O)O	2.7
Cc1ccc(CCC(=O)O)cc1	4.74
O=C1O[C@@H]([C@@H](O)CO)C([O-])=C1O	11.3
COC(=S)C1c2ccccc2-c2ccccc21	7.4
CC1=CC(=O)C(C(C)C)=C/C1=N/c1ccc(O)cc1	8.8
C=C(C)[C@@H]1C[NH2+][C@H](C(=O)[O-])[C@@H]1CC(=O)O	4.58
O=c1c2[nH]cnc2ncn1[O-]	10.1
COc1ccc(C)c(C(=O)O)c1	3.84
O=C1CC(=O)CS(=O)(=O)C1	2.72
NC(=O)Nc1[nH]c[nH+]c1C(=O)O	2
COc1cc(S(C)=O)ccc1-c1nc2ncncc2[nH]1 (stereo not given)	8.91
C#CC#CC#CCC(O)CCC(=O)O (stereo not given)	4.75
O=S(=O)(Nc1ncccn1)c1ccc(O)cc1	6.37
O=C([O-])c1ccc(O)c([N+](=O)[O-])c1	6.41
C[n+]1c2ccccc2cc2ccc(N)cc21	11.8
CC[NH+](CC)Cc1cc([N+](=O)[O-])c2ccccc2c1O	2.82
Cn1nc(/N=N/O)nc1Cl	5.17
CC(C)(C)Cc1ccc(O)cc1	10.7
C[N+](C)(C)CC(O)CC(=O)O (stereo not given)	3.8
Cc1cc(C(=O)O)ccc1O	4.68
N[C@@H](Cc1nc[nH]c1I)C(=O)[O-]	12.4
NC(=O)NS(=O)(=O)c1ccc(N)cc1	5.41

SMILES	pKa
O=[N+]([O-])c1cc(Br)ccc1O	6.36
CC(=O)CC(C)=O	8.85
CC(=O)N1CCc2noc(O)c2CC1	4.3
C[Se](=O)O	5.19
O=C1CN(C(=O)c2ccccc2)C(=S)N1	6.5
COc1c(C(=O)O)oc2ccccc12	3.7
O=c1c(O)c1-c1ccc(F)cc1	2.07
O=C([O-])c1ccccc1-n1nc(O)cc1-c1ccccc1	12.5
O=[N+]([O-])/C=C/c1ccc(O)cc1	7.98
CC(C)CC(N)C(=O)NC(CC(N)=O)C(=O)O (stereo not drawn) (H-Leu-Asn-OH; configuration not given here)	8.23
COc1cccc(CN)c1O	11.1
C[n+]1ccccc1N	12.2
Nc1ccc(S(=O)(=O)Nc2ccc(N)nc2)cc1	8.82
CC(=O)NCCS	9.5
Nc1ncnc2[nH]ncc12	10.8
Oc1ccc2ccccc2[nH+]1	0.31
OCc1ccc(O)cc1	9.82
NS(=O)(=O)C(F)(F)Br	6.53
Nc1nccc2c1[nH+]cn2CCOCP(=O)(O)O	1.23
CCOC(=O)C(Cc1ccc(C)cc1)C(C)=O (stereo not given)	11.9
CCOCCn1c(CN2CC[NH+](CCCCn3cc(C(=O)O)cn3)CC2)[nH+]c2ccccc21	3.8
C[Si](C)(CC(=O)O)c1ccccc1	5.27
COc1ccc(O)c(/N=N/c2nc(C)cs2)c1	7.98
CC(=O)C[N+](=O)[O-]	5.1
Nc1nc(N)c2[nH]cnc2n1	10.8
Nc1ccccc1O	9.71

SMILES	pKa
CC(=O)Nc1nnn[nH]1	4.53
O=C1CC(Sc2ccc([N+](=O)[O-])cc2)N1 (stereo not given)	13
C=C(OC)C(=O)O	3.38
CCCCCCCCCCc1c(-c2ccccc2)nn(-c2ccccc2)c1O	6.7
Cc1cc([N+](=O)[O-])cc(C)c1O	7.22
Oc1cccc(Cl)c1Cl	7.71
CCC(CC(C)C)OO (stereo not given)	12.8
O=[PH](O)C([NH2+]Cc1ccc[nH+]c1)c1ccccc1O (stereo not given)	2.35
CN(C)c1ncnc2nc[nH]c12	10.5
CNc1nc(C)nc2[nH]ncc12	11.3
CN1Cc2[nH]cnc2N(C)C1=O	11.2
Oc1cccc2cccc(O)c12	6.71
CC/C(N=O)=N/O	5.8
O=C(O)c1cc2cc(Cn3cc[nH+]c3)ccc2o1	2.38
O=C([O-])CNC(=O)c1ccccc1O	8.16
COc1ccc(O)cc1Br	9.09
Cc1cc(=O)n2ncnc2[nH]1	6.19
O=C1NCc2[nH]cnc2N1	11.5
CC(C)[NH2+]CCc1ccc(O)cc1	9.59
Cc1cc(O)ccc1/N=N/c1ccc2c(c1)Cc1ccccc1-2	10.3
C[n+]1cccc(/C=C(/O)c2ccccc2)c1	6.75
O=C(O)C1(O)CCCCCC1	4.04
C=C(C)/C=C(\C)O	10.4
O=C(O)c1ccc(CO)cc1	4.18

Same assay, conditions: basic group

SMILES	pKa
N#CC(C#N)=NNc1ccccc1Br	-0.8
c1ccc(NC2CCCCC2)cc1	5.6
Cn1ccc(=S)c2ccccc21	0.56
Nc1ncnc2[nH]cnc12	4.26
OCNc1ccc(Cl)cc1	2.22
Nn1nnnc1-c1ccccc1	-0.62
Cc1cc([N+](=O)[O-])ccc1N	1.97
CCCCCCN(CC(C)O)CC(O)CC (stereo not given)	8.9
CCc1cc(Cl)c([O-])c(C(=O)NC[C@H]2CCCN2CC)c1OC	9.54
Cc1csc2nccn12	5.36
CCN(CC)CCCC(C)=O	10.1
CCC(C)(N)CC	10.9
Fc1cccc2[nH]cnc12	4.4
Cc1ccc([C@@H](OCCN(C)C)c2ccccc2)cc1	8.5
NNC(=O)[C@H](Cc1c[nH]c[nH+]1)NC(=O)OCc1ccccc1	2.5
CCCCCCCCCCCCCCCCCc1c2ccccc2nc2ccccc12	5.5
Cc1ccc(C(C)C)c(OCCN(C)C)c1	8.66
NCCc1cccc(O)c1O	8.6
COc1cc(S(C)=O)ccc1-c1nc2ncncc2[nH]1 (stereo not given)	2.69
CC(=O)OCC1CC2CCN1CC2 (stereo not given)	9.88
COc1ccc2c3c1O[C@H]1CCC[C@H]4[C@H](NCC[C@]314)[C@H]2O	8.72
CN(CO)c1ccc(Cl)cc1	3.02
CCCCCCn1ccnc1	7.2
CC(C)(C)Nc1ccccc1	7.15
NCCCCCCC#CC#CCCC(=O)[O-]	10.7

SMILES	pKa
N#CC1C(=O)Cc2ccccc21 (stereo not given)	4.8
CCn1cc(C#N)c(=O)c2ccccc21	-1.55
Nc1cc2ccccc2nn1	3.66
CCCCCCN	10.7
N[C@H](C(=O)[O-])[C@H](O)C(=O)[O-]	8.75
CCN(CC)C(C)C(=O)Nc1c(C)cccc1C (stereo not given)	8.11
[NH3+]Cc1ccncc1	4.05
c1ccc2nnccc2c1	2.29
Cc1cccc(C)c1N(C)C	5.85
N[C@@H](Cc1nc[nH]c1I)C(=O)[O-]	8.62
COc1cccc(CN(C)C)c1O	8.42
C[C@H](CCCNCc1ccccc1)[C@H]1CC[C@H]2[C@@H]3[C@H](O)C[C@@H]4C[C@H](O)CC[C@]4(C)[C@H]3CC[C@]12C	9.07
COc1ccc2nccc(C(O)C3CCCC[NH2+]3)c2c1 (stereo not given)	4.34
[NH3+]CCCCCc1ccccn1	5.7
Cc1ccc(C)c(N)c1	4.47
CN(C)c1cccc(C#N)c1	2.97
[O-]c1ncnc2[nH]cnc12	8.71
CN(C)CCN	9.53
CNc1nnc(-c2ccccc2)s1	2.8
CCN1CCC[C@@H]1CNC(=O)c1c(OC)ccc(Cl)c1[O-]	9.54
O=C1CN(C(=O)c2ccccc2)C(=S)N1	-6.6
O=[N+]([O-])c1cccc2cnccc12	3.46
Nc1ccc2ncncc2c1	3.29
C[C@H](CCCNCc1ccccc1)[C@H]1CC[C@H]2[C@@H]3[C@@H](O)C[C@@H]4C[C@H](O)CC[C@]4(C)[C@H]3CC[C@]12C	9.05
CCNc1ncnc2c1cnn2C	4.24

SMILES	pKa
CN(C)/C=N/c1ccccc1Br	6.71
COc1cccc(CN)c1O	8.7
O=P([O-])([O-])c1cn2c(n1)[C@@H](O)[C@H](O)[C@@H](O)[C@@H]2CO	7.69
CCNc1nc(N)nc(NCC)n1	5.52
Nc1ccc(C(=O)c2ccc([NH3+])cc2)cc1	1.37
CN1CC[C@]23c4c5ccc(OCc6ccccc6)c4O[C@H]2[C@@H](O)C=C[C@H]3[C@H]1C5	8.07
N=C(N)Nc1nccc(-c2csc(N)n2)n1	9.2
Nc1ccc(S(=O)(=O)Nc2ccc(N)nc2)cc1	4.19
Nc1ncnc2[nH]ncc12	4.59
CN(C)c1ccc2cc3ccc([NH+](C)C)cc3[nH+]c2c1	-3.15
OCCNc1nc(NCCO)nc(NCCO)n1	5.19
CC1=NCCCC1	9.57
O=C1C=CN2C[C@@H]3C[C@@H](CN4CCCC[C@H]34)[C@@H]2C1	9.25
c1ccc(NCC[NH+]2CCCCC2)cc1	2.8
Cc1ccnc2ccccc12	5.51
C1=C(c2nc3ccccc3o2)C2CCN1CC2	7.23
N/C(CC([NH3+])c1ccccc1)=N\O (stereo not given)	3.75
Cc1[nH]cnc1CSCCNC(=[NH2+])NCCCc1c[nH]c[nH+]1	6.41
c1ccc(-c2cccc(-c3ccccn3)n2)nc1	4.66
Cc1cnc([O-])nc1N	12.4
Nc1nccc2c1[nH+]cn2CCOCP(=O)(O)O	0.15
CCc1cncc(C)c1	5.2
COc1ccc(O)c(/N=N/c2nc(C)cs2)c1	0.77
CCc1nc(C)c[nH]1	8.5
CC1CCN(C)C(C)(C)C1 (stereo not given)	10.2

SMILES	pKa
Nc1nc(N)c2[nH]cnc2n1	5.05
Nc1ccccc1O	4.55
CC(C=C(c1cccs1)c1cccs1)N1CCCCC1 (stereo not given)	8.46
C[NH+](C)CCC/N=C(\c1ccccc1)c1ccccc1O	3.31
COC(=O)c1ccncc1	3.38
N/C(C/C(N)=N/O)=N\O	4.77
COC(=O)c1ccccn1	2.21
Cc1cc(-c2ccccc2)nn2ccnc12	4.84
C[C@H]1CCC2CC[C@H](C)N21	11.7
C[NH+](C)CCCN=C(c1ccccc1)c1ccccc1	5.2
Nc1cc(-c2ccccc2)nc2ccccc12	8.2
CN(C)c1ncnc2nc[nH]c12	3.87
COc1cccc(C(=N)c2ccccc2)c1	6.59
CNc1nc(C)nc2[nH]ncc12	5.56
COc1ccc(S(=O)(=O)CCN2CCCCC2)c(OC)c1OC	7.24
CN(O)Cc1ccccc1	4.6
NCCCc1ccncc1	9.98
CNC(N)=O	0.8
CC(C)NCC(O)c1cccc(N)c1 (stereo not given)	9.6
CN(C)c1ccc(C=O)cc1	1.6
Cc1ccc([N+](=O)[O-])c2c(NCCC[NH+](C)C)cc(-c3ccccc3)nc12	5.43
CCN(Cl)CC	1.02
C(=C\C=N\c1ccccc1)/C=C/Nc1ccccc1	8.52
Cn1cc(Cl)cn1	0.16
